The record followed here is ChEMBL document CHEMBL5212743, “Selectivity Literature for EUbOPEN Chemogenomics Library wave 3” (2023).

The term inhibition denotes the drop in the measured response relative to a control, in per cent. Low readings indicate little suppression, high ones strong suppression.

The target in test [1] is T1, Muscarinic acetylcholine receptor M2 (Homo sapiens) (UniProt P08172).
T1 sequence (whole entry): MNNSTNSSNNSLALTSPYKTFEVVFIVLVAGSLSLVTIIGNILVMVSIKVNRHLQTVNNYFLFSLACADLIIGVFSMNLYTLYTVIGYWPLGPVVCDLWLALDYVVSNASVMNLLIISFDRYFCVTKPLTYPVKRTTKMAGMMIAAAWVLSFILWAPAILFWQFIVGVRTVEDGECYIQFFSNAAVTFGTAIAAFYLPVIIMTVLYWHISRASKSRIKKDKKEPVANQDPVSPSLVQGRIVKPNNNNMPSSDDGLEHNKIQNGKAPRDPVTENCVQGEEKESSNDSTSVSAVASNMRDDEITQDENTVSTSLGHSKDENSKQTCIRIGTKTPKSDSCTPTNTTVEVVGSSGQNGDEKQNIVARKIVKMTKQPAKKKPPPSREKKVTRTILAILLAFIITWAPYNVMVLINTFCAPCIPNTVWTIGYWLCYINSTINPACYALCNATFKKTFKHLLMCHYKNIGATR
Put plainly: Selectivity interaction (GPCR panel (PDSP screen)) EUB0000333a CHRM2. The settings on record: at 10 µM.

Test [2] concerns the target P2Y purinoceptor 2 (Homo sapiens) (UniProt P41231). Put plainly: Selectivity interaction (GPCR panel (Eurofins-Cerep)) EUB0000333a P2RY2. The settings on record: at 10 µM.
For test [3], the target named is Serine/threonine-protein kinase ICK (Homo sapiens) (UniProt Q9UPZ9). Put plainly: Selectivity interaction (KinomeScan (DiscoverX)) EUB0000333a ICK. The settings on record: at 1 µM.
The target of test [4] is eIF-2-alpha kinase GCN2 (Homo sapiens) (UniProt Q9P2K8). Put plainly: Selectivity interaction (KinomeScan (DiscoverX)) EUB0000333a EIF2AK4. The settings on record: at 1 µM.
Test [5] deals with T2, Sigma intracellular receptor 2 (Homo sapiens, UniProt Q5BJF2). The test is described as follows: Selectivity interaction (GPCR panel (PDSP screen)) EUB0000333a TMEM97. The settings on record: at 10 µM.
Test [6] addresses Serine/threonine-protein kinase SBK1 (Homo sapiens) (UniProt Q52WX2). Put plainly: Selectivity interaction (KinomeScan (DiscoverX)) EUB0000708a SBK1. As to conditions: at 1 µM.
Test [7] addresses Serine/threonine-protein kinase ULK3 (Homo sapiens) (UniProt Q6PHR2). Put plainly: Selectivity interaction (KinomeScan (DiscoverX)) EUB0000708a ULK3. As to conditions: at 1 µM.
Test [8] addresses Prostaglandin E2 receptor EP4 subtype (Homo sapiens, UniProt P35408). Put plainly: Selectivity interaction (Eurofins-Panlabs radioligand binding assay ) EUB0000293b PTGER4. The settings on record: at 10 µM.
Test [9] addresses 5-hydroxytryptamine receptor 3A (Homo sapiens) (UniProt P46098). Put plainly: Selectivity interaction (GPCR panel (PDSP screen)) EUB0000293b HTR3A. As to conditions: at 10 µM.
Test [10] addresses 5-hydroxytryptamine receptor 2C (Homo sapiens) (UniProt P28335). Put plainly: Selectivity interaction (GPCR panel (PDSP screen)) EUB0000737a HTR2C. As to conditions: at 10 µM.
In a further test the target is Histamine H1 receptor (Homo sapiens, UniProt P35367). Put plainly: Selectivity interaction (GPCR panel (PDSP screen)) EUB0000251b HRH1. The settings on record: at 10 µM.
Test [11] has as its target T2, Sigma intracellular receptor 2. The test is described as follows: Selectivity interaction (GPCR panel (PDSP screen)) EUB0000251b TMEM97. As to conditions: at 10 µM.
Test [12] has as its system Phosphatidylinositol 4,5-bisphosphate 3-kinase catalytic subunit alpha isoform (Homo sapiens), P42336 [E542K]. Put plainly: (§1) Selectivity interaction (KinomeScan (DiscoverX)) EUB0000251b PIK3CA. As to conditions: at 1 µM.
Test [13] relates to Phosphatidylinositol 4,5-bisphosphate 3-kinase catalytic subunit alpha isoform (Homo sapiens), P42336 [Q546K]. The test is described as §1. As to conditions: at 1 µM.
Test [14] concerns the target 5-hydroxytryptamine receptor 2A (Homo sapiens, UniProt P28223). Put plainly: Selectivity interaction (Lead profiling screen (Eurofins, panel of GPCRs, transporters, nuclear receptors, and other enzymes)) EUB0000320b HTR2A. As to conditions: at 10 µM.
Test [15] deals with 5-hydroxytryptamine receptor 2B (Homo sapiens, UniProt P41595). The test is described as follows: Selectivity interaction (Lead profiling screen (Eurofins, panel of GPCRs, transporters, nuclear receptors, and other enzymes)) EUB0000320b HTR2B. The settings on record: at 10 µM.
For test [16], the target named is 5-hydroxytryptamine receptor 2C (Homo sapiens) (UniProt P28335). The test is described as follows: Selectivity interaction (Lead profiling screen (Eurofins, panel of GPCRs, transporters, nuclear receptors, and other enzymes)) EUB0000320b HTR2C. As to conditions: at 10 µM.
Test [17] addresses T3, Alpha-1A adrenergic receptor (Homo sapiens) (UniProt P35348).
T3 sequence (whole entry): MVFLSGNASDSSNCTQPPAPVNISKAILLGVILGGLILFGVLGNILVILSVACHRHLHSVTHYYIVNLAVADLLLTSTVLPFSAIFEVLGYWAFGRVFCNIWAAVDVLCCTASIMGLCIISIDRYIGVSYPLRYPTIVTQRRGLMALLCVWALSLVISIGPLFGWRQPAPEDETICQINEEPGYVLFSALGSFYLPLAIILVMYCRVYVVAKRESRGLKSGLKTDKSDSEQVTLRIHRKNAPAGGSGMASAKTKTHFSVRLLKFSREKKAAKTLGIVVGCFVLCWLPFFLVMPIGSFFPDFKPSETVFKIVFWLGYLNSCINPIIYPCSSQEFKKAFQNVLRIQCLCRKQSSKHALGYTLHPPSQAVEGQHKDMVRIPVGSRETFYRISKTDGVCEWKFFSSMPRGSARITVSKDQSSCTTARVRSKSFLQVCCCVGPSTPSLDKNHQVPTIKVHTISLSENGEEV
Put plainly: Selectivity interaction (Lead profiling screen (Eurofins, panel of GPCRs, transporters, nuclear receptors, and other enzymes)) EUB0000320b ADRA1A. As to conditions: at 10 µM.

Test [18] has as its target Kappa-type opioid receptor (Homo sapiens, UniProt P41145). Put plainly: Selectivity interaction (Lead profiling screen (Eurofins, panel of GPCRs, transporters, nuclear receptors, and other enzymes)) EUB0000320b OPRK1. As to conditions: at 10 µM.
Test [19] has as its target Serine/threonine-protein kinase 33 (Homo sapiens, UniProt Q9BYT3). Put plainly: Selectivity interaction (KinomeScan (DiscoverX)) EUB0000320b STK33. The settings on record: at 1 µM.
The target in test [20] is Casein kinase II subunit alpha' (Homo sapiens) (UniProt P19784). The test is described as follows: Selectivity interaction (Kinase panel (Eurofins)) EUB0000320b CSNK2A2. As to conditions: at 1 µM.
The target in test [21] is T4, Myosin-IIIb (Homo sapiens) (UniProt Q8WXR4).
T4 sequence (whole entry): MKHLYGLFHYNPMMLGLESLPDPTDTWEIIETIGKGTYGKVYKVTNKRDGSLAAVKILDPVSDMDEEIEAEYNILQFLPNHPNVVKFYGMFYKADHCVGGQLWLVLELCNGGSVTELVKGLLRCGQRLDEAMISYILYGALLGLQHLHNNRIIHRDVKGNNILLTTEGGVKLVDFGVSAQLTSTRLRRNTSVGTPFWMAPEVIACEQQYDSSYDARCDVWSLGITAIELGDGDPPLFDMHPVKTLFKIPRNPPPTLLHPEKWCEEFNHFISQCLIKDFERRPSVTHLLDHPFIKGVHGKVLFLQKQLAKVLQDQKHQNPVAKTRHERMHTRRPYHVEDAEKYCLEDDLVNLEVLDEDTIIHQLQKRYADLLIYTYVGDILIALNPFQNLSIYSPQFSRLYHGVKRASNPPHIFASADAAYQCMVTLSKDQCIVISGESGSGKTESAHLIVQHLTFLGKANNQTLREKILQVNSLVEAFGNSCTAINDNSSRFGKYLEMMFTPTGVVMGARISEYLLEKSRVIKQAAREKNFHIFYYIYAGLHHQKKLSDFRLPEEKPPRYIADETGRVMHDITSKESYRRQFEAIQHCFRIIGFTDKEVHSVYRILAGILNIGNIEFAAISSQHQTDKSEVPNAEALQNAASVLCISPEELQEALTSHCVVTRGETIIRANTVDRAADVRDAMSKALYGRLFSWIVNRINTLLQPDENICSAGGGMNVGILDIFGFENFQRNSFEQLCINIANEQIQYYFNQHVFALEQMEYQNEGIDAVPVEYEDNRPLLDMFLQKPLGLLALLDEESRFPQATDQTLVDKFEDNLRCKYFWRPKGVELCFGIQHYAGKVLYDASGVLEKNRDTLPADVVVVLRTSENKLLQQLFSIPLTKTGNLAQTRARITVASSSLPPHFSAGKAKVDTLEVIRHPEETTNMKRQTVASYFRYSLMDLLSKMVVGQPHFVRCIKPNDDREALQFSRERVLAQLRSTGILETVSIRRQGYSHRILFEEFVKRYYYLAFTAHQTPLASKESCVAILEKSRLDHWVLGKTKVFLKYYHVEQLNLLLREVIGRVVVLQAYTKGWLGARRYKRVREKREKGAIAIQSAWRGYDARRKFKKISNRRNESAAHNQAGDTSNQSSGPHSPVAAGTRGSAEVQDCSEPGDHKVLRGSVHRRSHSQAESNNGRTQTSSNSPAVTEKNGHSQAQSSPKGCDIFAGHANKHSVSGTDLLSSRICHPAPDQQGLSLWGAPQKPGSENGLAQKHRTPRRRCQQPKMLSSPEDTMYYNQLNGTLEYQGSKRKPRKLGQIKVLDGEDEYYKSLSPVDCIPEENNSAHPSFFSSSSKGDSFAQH
The test is described as follows: Selectivity interaction (KinomeScan (DiscoverX)) EUB0000320b MYO3B. The settings on record: at 1 µM.

The subject of test [22] is Receptor-type tyrosine-protein kinase FLT3 (Homo sapiens), P36888 [UNDEFINED MUTATION]. Put plainly: Selectivity interaction (KinomeScan (DiscoverX)) EUB0000320b FLT3. As to conditions: at 1 µM.
In test [23] the target is T5, Cytoplasmic tyrosine-protein kinase BMX (Homo sapiens) (UniProt P51813).
T5 sequence (whole entry): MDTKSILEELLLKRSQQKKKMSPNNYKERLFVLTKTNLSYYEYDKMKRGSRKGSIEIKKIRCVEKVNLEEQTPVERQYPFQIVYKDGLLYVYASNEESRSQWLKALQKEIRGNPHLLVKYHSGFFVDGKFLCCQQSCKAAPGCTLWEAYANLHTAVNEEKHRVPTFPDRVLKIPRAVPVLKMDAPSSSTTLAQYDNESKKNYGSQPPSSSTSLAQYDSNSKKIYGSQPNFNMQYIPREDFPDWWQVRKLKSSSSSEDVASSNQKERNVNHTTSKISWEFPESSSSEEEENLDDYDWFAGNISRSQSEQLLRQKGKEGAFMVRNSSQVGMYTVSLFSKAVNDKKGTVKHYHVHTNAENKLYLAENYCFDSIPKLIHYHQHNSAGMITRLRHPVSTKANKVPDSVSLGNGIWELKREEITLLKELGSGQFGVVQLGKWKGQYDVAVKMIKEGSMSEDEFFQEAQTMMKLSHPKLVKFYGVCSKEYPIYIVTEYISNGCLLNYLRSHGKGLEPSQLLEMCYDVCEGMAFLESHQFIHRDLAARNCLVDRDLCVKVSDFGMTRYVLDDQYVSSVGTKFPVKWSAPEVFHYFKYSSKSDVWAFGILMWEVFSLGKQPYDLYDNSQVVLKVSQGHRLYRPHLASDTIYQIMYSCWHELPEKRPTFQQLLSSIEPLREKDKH
The test is described as follows: Selectivity interaction (KinomeScan (DiscoverX)) EUB0000320b BMX. The settings on record: at 1 µM.

Sequence of 5-hydroxytryptamine receptor 2C (Homo sapiens) (P28335 whole entry): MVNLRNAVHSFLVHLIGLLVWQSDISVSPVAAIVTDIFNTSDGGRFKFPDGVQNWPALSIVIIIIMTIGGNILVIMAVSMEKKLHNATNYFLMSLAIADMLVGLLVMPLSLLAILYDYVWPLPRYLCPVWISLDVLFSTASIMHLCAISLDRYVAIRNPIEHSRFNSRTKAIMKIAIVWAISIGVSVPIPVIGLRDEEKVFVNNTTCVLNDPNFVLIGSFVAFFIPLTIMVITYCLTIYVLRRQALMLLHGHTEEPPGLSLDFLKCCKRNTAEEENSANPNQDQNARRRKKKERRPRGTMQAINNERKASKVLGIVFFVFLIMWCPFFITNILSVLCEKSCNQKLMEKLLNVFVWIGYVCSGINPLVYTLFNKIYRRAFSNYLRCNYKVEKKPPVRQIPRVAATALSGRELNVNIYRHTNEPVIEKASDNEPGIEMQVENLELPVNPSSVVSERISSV
T2 sequence (Q5BJF2 whole entry): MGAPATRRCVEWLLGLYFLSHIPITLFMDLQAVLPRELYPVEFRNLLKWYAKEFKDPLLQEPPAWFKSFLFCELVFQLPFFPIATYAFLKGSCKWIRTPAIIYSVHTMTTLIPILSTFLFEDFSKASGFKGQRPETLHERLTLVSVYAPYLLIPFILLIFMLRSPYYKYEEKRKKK
Sequence of Casein kinase II subunit alpha' (Homo sapiens) (P19784 whole entry, looked up): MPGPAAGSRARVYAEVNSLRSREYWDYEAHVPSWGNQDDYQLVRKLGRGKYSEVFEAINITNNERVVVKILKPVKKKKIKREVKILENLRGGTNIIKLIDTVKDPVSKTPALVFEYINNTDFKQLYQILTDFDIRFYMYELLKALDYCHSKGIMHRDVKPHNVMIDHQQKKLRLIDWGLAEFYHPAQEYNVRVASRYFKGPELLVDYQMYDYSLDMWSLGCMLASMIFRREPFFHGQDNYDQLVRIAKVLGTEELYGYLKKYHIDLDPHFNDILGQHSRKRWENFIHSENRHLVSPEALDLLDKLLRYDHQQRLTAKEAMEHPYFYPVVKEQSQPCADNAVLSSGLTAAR
Sequence of eIF-2-alpha kinase GCN2 (Homo sapiens) (Q9P2K8 whole entry): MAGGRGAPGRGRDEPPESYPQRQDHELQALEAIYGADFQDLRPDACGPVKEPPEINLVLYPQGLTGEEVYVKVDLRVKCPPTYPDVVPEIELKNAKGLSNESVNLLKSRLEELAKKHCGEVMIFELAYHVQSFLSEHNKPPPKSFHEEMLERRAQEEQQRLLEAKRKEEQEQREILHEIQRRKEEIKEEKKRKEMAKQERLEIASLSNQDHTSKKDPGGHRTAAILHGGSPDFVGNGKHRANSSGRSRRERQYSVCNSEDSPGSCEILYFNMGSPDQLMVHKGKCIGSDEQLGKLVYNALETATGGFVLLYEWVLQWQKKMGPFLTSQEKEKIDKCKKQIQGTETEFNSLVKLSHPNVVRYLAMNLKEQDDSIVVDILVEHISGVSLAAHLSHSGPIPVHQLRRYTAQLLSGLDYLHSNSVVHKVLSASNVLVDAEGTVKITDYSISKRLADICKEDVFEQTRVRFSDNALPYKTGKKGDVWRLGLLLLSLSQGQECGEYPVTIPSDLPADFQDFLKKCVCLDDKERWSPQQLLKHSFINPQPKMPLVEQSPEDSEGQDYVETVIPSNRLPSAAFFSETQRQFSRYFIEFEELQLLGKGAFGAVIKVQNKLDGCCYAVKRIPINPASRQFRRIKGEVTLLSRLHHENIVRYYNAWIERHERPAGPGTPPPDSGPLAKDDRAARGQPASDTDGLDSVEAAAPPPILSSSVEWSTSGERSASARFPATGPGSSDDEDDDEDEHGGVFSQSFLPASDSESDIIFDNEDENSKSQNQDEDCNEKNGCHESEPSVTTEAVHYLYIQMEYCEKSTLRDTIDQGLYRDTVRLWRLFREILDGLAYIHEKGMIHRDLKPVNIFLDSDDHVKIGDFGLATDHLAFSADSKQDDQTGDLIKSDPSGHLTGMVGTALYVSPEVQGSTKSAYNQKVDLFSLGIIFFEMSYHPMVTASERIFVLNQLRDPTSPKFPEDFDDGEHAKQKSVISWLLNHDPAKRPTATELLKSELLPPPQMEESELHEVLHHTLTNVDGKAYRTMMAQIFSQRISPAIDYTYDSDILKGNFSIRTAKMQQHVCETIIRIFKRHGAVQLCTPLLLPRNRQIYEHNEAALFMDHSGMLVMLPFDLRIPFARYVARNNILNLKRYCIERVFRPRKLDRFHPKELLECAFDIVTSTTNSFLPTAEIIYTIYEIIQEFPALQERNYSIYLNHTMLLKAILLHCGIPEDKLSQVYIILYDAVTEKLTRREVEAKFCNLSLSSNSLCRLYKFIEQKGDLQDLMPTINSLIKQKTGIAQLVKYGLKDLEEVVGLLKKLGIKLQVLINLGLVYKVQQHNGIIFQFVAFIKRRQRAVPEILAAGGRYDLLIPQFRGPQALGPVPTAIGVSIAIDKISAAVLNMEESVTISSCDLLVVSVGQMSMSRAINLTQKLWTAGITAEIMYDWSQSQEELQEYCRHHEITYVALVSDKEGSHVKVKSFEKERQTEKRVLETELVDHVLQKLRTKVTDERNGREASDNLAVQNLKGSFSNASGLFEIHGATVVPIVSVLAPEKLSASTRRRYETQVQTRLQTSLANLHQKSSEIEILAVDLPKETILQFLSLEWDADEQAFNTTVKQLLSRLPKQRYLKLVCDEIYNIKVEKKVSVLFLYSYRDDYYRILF
Sequence of Serine/threonine-protein kinase ULK3 (Homo sapiens) (Q6PHR2 whole entry): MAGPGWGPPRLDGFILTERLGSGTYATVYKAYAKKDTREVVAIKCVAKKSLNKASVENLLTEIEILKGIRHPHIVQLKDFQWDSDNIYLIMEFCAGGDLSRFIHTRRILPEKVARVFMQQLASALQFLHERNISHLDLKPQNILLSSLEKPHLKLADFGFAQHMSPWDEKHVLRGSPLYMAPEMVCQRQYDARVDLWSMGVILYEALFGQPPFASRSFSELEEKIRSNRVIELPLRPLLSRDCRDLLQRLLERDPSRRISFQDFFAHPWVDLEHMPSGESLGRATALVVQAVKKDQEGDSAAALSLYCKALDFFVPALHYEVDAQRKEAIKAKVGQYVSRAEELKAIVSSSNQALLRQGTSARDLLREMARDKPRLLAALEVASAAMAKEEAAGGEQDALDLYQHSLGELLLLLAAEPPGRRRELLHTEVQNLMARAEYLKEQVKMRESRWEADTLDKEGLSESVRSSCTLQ
Sequence of Histamine H1 receptor (P35367 whole entry): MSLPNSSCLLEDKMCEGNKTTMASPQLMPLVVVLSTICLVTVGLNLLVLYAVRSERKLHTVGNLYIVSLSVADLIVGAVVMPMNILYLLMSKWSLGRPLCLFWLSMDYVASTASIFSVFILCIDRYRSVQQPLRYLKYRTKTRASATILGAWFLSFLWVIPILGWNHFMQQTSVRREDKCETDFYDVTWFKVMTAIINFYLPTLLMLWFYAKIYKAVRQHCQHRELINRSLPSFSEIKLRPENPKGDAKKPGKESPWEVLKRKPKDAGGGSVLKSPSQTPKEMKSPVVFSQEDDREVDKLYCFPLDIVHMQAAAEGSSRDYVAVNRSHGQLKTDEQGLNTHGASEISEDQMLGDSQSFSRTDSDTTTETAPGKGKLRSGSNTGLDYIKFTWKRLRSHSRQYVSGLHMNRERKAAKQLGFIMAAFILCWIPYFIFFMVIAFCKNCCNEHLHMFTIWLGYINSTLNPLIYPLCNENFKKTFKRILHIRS
Sequence of 5-hydroxytryptamine receptor 2B (P41595 whole entry): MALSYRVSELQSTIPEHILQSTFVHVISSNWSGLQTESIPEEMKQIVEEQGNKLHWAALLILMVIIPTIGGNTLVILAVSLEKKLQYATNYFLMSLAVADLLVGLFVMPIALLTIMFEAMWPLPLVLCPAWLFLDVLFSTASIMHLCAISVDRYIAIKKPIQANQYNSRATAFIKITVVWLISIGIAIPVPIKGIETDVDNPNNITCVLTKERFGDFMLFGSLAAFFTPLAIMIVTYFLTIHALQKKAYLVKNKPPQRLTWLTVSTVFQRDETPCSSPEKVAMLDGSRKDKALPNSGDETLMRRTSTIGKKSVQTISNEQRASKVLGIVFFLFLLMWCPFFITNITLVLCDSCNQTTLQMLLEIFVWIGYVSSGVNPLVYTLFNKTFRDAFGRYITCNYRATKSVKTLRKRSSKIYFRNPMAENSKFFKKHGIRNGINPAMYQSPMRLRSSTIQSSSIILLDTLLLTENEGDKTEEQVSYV
Sequence of 5-hydroxytryptamine receptor 3A (Homo sapiens) (P46098 whole entry): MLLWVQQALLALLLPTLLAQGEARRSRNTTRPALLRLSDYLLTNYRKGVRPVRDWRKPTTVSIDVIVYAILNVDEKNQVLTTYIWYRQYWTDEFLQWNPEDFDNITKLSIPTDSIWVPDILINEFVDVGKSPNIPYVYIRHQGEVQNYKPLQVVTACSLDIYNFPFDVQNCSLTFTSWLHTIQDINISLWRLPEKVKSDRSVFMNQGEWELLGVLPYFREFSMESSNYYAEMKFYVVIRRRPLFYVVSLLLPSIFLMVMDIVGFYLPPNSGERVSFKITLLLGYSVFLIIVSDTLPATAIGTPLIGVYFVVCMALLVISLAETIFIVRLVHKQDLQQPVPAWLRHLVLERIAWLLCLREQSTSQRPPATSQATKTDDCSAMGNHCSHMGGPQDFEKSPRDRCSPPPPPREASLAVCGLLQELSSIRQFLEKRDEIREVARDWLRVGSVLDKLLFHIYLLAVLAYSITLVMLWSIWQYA
Sequence of P2Y purinoceptor 2 (Homo sapiens) (P41231 whole entry): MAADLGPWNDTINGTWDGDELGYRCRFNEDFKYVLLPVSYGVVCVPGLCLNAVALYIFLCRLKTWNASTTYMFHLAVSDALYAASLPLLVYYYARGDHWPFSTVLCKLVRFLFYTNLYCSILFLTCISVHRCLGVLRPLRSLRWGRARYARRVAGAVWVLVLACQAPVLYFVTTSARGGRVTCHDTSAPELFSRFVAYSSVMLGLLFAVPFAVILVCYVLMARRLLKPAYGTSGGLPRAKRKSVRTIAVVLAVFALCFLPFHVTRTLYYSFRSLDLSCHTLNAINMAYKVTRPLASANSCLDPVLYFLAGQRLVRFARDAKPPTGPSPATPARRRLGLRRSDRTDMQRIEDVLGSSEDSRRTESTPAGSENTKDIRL

`Cc1noc([C@H]2C[C@@H](c3ccc(C(F)(F)F)cc3)CN(C(=O)N3CCS(=O)(=O)C3)C2)n1`: the inhibition is 39% in [1], 29% in test [2] and 42% in [5]. The figures for the % of control in [3] and in test [4] were 62% and 28%, respectively.
Turning to `Cc1nc(C2CCN(C(=O)c3ccc(OC(F)(F)F)cc3N)CC2)c2ncc(N3CCN(C)CC3)cc2n1`, the results for the % of control in test [6] and in test [7] were 40% and 46%, respectively.
Regarding `CC1=C(C#N)C(c2ccc3[nH]nc(C)c3c2)C(C#N)=C(C)N1`, in test [8], the % of inhibition amounted to 19%. This molecule also returned a % of control in test [9] of 33%.
Take `CC(=O)C1=C(C)N(c2cccc(C(F)(F)F)c2)C(=O)N[C@H]1c1ccc(C#N)nc1`: the % of inhibition in test [10] turned out to be 29%.
`Cc1c(NC(=O)c2cc(C(N)=O)nc3cc(F)ccc23)c(C(F)(F)F)nn1Cc1ccc(C(C)(C)C)cc1`: the results for the % of inhibition (at Histamine H1 receptor; in test [11]) were 46% and 41%, respectively. In addition, the % of control was 43% in test [12] and 32% in test [13].
For the molecule `CNCc1ccccc1-c1csc([C@@H](C)Nc2nc(C)nc3cc(OC)c(OC)cc23)c1`, the % of inhibition came out at 110% in test [14]; 100% in [15]; 104% in test [16]; 106% in test [17]; 105% in test [18]. Further, the % of control was 45% in test [19]; 67% in test [20]; 47% in [21]; 48% in [22]; 49% in test [23].
